Read-outs that look alike come from different tables or passages of the source.
How the values were obtained:
α-D-glucosidase [1] = biological target: T1, α-D-glucosidase (Saccharomyces cerevisiae, UniProt P53341); assay: Glycosidase inhibition: α-D-glucosidase (yeast); assay type: biochemical, Saccharomyces cerevisiae (Baker's yeast); conditions: 1 mg/ml; pH 6.0, 20° C
T1 construct: purchased Sigma
Experimental: (§1) Inhibition of the N-linked glycan trimming enzymes alpha-Glucosidases I and II or alpha-Mannosidases I and II are thought to be related to the anti-viral activity of castanospermine (Compound 104) and 1-deoxynojirimycin (Compound 193). […] All enzymes were purchased from Sigma, as were the appropriate p-nitrophenyl substrates. Assays were carried out in microtitre plates. Enzymes were assayed in 0.1M citric acid/0.2M di-sodium hydrogen phosphate (McIlvaine) buffers at the optimum pH for the enzyme. All assays were carried out at 20° C. For screening assays the incubation assay consisted of 10 μl of enzyme solution, 10 μl of inhibitor solution (made up in water at 5 mM) and 50 μl of the appropriate 5 mM p-nitrophenyl substrate (3.57 mM final conc.) made up in McIlvaine buffer at the optimum pH for the enzyme.
(§2) The reactions were stopped with 0.4M glycine (pH 10.4) during the exponential phase of the reaction, which was determined at the beginning of the assay using blanks with water, which were incubated for a range of time periods to measure the reaction rate using 5 mM substrate solution. Endpoint absorbances were read at 405 nm with a Bio-rad microtitre plate reader (Benchmark). Water was substituted for the inhibitors in the blanks.

α-D-glucosidase [2] = biological target: T2, α-D-glucosidase (Oryza sativa subsp. japonica, UniProt Q653V7); assay: Glycosidase inhibition: α-D-glucosidase (rice); assay type: biochemical, rice (Oryza sativa); conditions: 1 mg/ml; pH 6.0, 20° C
T2 construct: purchased Sigma
T2 sequence (Q653V7 34-885): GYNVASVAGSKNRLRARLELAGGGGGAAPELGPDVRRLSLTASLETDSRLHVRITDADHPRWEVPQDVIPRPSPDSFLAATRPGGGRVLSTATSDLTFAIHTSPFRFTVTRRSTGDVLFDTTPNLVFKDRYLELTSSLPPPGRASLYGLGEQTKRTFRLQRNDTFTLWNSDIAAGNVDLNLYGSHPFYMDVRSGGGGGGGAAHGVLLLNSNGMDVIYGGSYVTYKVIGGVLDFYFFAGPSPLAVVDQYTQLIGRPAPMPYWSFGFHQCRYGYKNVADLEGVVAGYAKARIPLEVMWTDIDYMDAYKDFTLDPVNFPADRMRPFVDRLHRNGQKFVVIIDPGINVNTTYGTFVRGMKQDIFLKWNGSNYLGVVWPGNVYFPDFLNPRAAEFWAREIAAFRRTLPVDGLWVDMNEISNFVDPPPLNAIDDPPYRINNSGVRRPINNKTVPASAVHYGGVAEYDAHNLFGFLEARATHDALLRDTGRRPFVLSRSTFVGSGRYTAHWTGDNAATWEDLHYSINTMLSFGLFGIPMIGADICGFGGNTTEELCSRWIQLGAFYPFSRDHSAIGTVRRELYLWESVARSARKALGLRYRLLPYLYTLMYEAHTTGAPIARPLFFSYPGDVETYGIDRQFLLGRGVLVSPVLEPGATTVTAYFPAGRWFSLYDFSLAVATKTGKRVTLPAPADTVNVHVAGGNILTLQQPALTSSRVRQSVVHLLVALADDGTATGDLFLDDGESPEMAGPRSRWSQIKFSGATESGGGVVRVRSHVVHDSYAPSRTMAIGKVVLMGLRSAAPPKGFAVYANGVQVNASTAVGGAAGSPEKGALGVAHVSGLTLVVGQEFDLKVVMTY
Experimental: as §1, §2

α-D-glucosidase [3] = assay: Glycosidase inhibition: α-D-glucosidase (Bacillus); assay type: biochemical, Bacillus stearothermophilus; conditions: 1 mg/ml; pH 6.0, 20° C
Experimental: as §1, §2

β-D-glucosidase = assay: Glycosidase inhibition: β-D-glucosidase; assay type: biochemical, Almonds (Prunus sp.); conditions: 1 mg/ml; pH 5.0, 20° C
Experimental: as §1, §2

α-D-galactosidase = biological target: T3, α-D-galactosidase (Coffea arabica, UniProt Q42656); assay: Glycosidase inhibition: α-D-galactosidase; assay type: biochemical, Green coffee beans (Coffea sp.); conditions: 1 mg/ml; pH 6.5, 20° C
T3 construct: purchased Sigma
T3 sequence (Q42656 16-378): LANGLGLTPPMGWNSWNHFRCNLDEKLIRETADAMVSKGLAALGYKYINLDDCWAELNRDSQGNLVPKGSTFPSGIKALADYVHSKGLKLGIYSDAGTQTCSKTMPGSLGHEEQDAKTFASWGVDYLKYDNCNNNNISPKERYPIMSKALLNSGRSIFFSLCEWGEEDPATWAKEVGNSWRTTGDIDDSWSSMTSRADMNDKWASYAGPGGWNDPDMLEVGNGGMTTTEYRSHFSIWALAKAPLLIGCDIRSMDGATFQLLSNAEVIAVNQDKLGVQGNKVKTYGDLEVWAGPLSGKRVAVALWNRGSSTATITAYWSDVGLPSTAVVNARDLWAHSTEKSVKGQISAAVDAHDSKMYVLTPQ
Experimental: as §1, §2

β-D-galactosidase = assay: Glycosidase inhibition: β-D-galactosidase; assay type: biochemical, Bovine liver; conditions: 1 mg/ml; pH 7.3, 20° C
Experimental: as §1, §2

α-D-mannosidase = biological target: T4, α-D-mannosidase (Canavalia ensiformis, UniProt C0HJB3); assay: Glycosidase inhibition: α-D-mannosidase; assay type: biochemical, Jack beans (Canavalia ensiformis); conditions: 1 mg/ml; pH 4.5, 20° C
T4 construct: purchased Sigma
T4 sequence (C0HJB3 1-981): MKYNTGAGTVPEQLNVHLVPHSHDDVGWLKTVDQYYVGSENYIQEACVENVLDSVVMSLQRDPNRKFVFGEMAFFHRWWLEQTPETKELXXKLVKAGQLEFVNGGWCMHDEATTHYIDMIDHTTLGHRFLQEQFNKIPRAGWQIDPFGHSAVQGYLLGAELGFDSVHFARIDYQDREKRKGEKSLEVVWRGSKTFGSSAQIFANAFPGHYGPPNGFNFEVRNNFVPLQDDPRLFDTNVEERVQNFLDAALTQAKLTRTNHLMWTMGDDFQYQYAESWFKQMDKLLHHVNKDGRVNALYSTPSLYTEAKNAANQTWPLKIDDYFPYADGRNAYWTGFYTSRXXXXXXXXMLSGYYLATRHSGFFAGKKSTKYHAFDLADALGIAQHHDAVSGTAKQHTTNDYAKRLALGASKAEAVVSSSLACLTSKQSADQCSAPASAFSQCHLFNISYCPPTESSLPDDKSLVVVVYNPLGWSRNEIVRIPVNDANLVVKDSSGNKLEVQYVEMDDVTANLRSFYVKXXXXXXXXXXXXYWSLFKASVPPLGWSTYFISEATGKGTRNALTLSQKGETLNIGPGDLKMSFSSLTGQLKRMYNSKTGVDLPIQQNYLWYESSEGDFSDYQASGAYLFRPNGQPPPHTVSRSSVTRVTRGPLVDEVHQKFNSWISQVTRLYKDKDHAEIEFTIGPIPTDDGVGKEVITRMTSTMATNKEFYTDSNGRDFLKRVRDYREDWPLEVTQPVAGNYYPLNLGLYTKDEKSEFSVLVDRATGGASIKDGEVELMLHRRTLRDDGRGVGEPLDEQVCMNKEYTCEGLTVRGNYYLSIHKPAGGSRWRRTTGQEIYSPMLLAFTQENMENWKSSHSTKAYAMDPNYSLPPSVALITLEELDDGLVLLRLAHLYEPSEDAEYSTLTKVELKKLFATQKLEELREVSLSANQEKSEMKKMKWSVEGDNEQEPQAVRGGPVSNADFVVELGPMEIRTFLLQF
Experimental: as §1, §2

α-L-fucosidase = biological target: T5, α-L-fucosidase (Bos taurus, UniProt Q2KIM0); assay: Glycosidase inhibition: α-L-fucosidase; assay type: biochemical, Bovine kidney; conditions: 1 mg/ml; pH 5.5, 20° C
T5 construct: purchased Sigma; host or cells: bovine kidney
T5 sequence (Q2KIM0 23-468): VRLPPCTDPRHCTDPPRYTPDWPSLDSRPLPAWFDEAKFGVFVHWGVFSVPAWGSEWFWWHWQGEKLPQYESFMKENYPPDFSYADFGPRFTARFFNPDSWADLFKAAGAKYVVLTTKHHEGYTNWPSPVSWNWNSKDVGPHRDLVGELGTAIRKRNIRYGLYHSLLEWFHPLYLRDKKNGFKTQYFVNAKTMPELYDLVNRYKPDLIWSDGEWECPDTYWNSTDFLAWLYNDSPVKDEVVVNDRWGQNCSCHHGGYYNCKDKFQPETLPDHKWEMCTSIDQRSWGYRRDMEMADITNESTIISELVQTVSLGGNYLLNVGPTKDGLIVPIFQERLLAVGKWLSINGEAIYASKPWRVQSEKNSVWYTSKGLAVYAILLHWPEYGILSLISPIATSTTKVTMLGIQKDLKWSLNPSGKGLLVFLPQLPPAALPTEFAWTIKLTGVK
Experimental: All enzymes were purchased from Sigma, as were the appropriate p-nitrophenyl substrates. Assays were carried out in microtitre plates. Enzymes were assayed in 0.1M citric acid/0.2M di-sodium hydrogen phosphate (McIlvaine) buffers at the optimum pH for the enzyme. All assays were carried out at 20° C. For screening assays the incubation assay consisted of 10 μl of enzyme solution, 10 μl of inhibitor solution (made up in water at 5 mM) and 50 μl of the appropriate 5 mM p-nitrophenyl substrate (3.57 mM final conc.) made up in McIlvaine buffer at the optimum pH for the enzyme.
as §2

Naringinase = assay: Glycosidase inhibition: Naringinase; assay type: biochemical, Penecillium decumbens; conditions: 1 mg/ml; pH 4.0, 20° C
Experimental: as §1, §2

[4] = test system: N-acetyl-β-D-glucosaminidase; assay: Glycosidase inhibition: N-acetyl-β-D-glucosaminidase; assay type: biochemical, Bovine kidney; conditions: 1 mg/ml; pH 4.25, 20° C
Experimental: as §1, §2

HCV = assay: Cell-based HCV infection NS3 protease FRET assay in DMSO-Huh7 cells; parameters: species or system hepatitis C virus (HCV)
[5] = DMSO-Huh7 cells infected with HCV at 0.05 ffu/cell, HCV NS3 protein levels by FRET, day 6 p.i.

T1 sequence (P53341 whole entry): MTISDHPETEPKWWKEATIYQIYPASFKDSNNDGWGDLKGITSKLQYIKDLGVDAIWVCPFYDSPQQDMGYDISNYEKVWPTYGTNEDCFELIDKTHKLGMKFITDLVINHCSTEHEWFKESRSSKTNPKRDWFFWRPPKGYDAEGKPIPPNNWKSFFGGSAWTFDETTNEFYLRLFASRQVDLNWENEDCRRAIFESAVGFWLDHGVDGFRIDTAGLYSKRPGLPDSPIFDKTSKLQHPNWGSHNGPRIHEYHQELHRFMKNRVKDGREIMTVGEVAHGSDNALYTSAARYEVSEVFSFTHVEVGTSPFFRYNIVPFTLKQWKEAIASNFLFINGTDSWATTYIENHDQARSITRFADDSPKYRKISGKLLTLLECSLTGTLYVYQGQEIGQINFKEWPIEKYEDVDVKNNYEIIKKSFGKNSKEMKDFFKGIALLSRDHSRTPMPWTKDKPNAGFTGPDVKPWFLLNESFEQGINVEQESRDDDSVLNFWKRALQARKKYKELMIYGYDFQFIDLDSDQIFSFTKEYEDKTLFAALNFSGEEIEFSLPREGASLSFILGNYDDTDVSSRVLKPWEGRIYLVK

| Compound | Ave % inhibition (HCV; [5]) | also measured |
| --- | --- | --- |
| OC[C@H]1NC[C@H](O)[C@@H](O)[C@@H]1O [Compound 193, 1-deoxynojirimycin, reference compound] |  | % inhibition α-gluc (yeast) (α-D-glucosidase [1]): 35%; % inhibition α-gluc (rice) (α-D-glucosidase [2]): 100%; % inhibition α-gluc (Bacillus) (α-D-glucosidase [3]): 100%; % inhibition β-glucosidase (β-D-glucosidase): 64%; % inhibition α-galactosidase (α-D-galactosidase): 0%; % inhibition β-galactosidase (β-D-galactosidase): 0%; % inhibition α-mannosidase (α-D-mannosidase): 0%; % inhibition α-fucosidase (α-L-fucosidase): 0%; % inhibition Naringinase (Naringinase): 0%; % inhibition N-acetyl-β-gluc [4]: 0% |
| CCCCN1C[C@H](O)[C@H](O)[C@@H]1CO [Compound 162, (2S,3R,4S)-1-butyl-2-(hydroxymethyl)pyrrolidine-3,4-diol] | ++ (++: 20-39%) |  |
| C[C@@H]1CC[C@@H]2[C@@H](O)[C@H](O)[C@@H](CO)N12 [Compound 14, (1R,2R,3R,5R,7aR)-3-(hydroxymethyl)-5-methylhexahydro-1H-pyrrolizine-1,2-diol] |  | Ave % inhibition (HCV): + (+: ≦19%) |
| CCCCCCCCCN1C[C@@H](O)[C@H](NC(C)=O)[C@@H](O)C1 [Compound 789, N-((3S,4r,5R)-3,5-dihydroxy-1-nonylpiperidin-4-yl)acetamide] | +++ (+++: 40-59%) |  |
| CCCCCCCCCN1C[C@@H](O)[C@@H](O)[C@H](O)[C@H](O)C1 [Compound 794, (3R,4R,5R,6R)-1-nonylazepane-3,4,5,6-tetraol] | ++++ (++++: 60-79%) |  |
| O[C@H]([C@H]1[C@@H](O)[C@H](O)CN1Cc1ccccc1)[C@H](O)CNCc1ccccc1 [Compound 698, (2S,3R,4R)-1-benzyl-2-((1R,2R)-3-(benzylamino)-1,2-dihydroxypropyl)pyrrolidine-3,4-diol] | ++ (++: 20-39%) |  |
| OC[C@@H](O)[C@@H]1NC[C@H](O)[C@@H]1O [Compound 155, (2S,3R,4S)-2-((S)-1,2-dihydroxyethyl)pyrrolidine-3,4-diol] |  | Ave % inhibition (HCV): ++ (++: 20-39%) |
| ((2S,4S)-4-acetamido-1-nonylpyrrolidin-2-yl)methyl acetate [Compound 332] | +++++ (+++++: ≧80%) |  |
| CCCCCCCCCN1C[C@@H](O)[C@@H](O)[C@@H]1[C@H](O)CO [Compound 427, (2S,3S,4R)-2-((S)-1,2-dihydroxyethyl)-1-nonylpyrrolidine-3,4-diol] | +++ (+++: 40-59%) |  |
| CC1(C)O[C@H]2[C@H](CN(Cc3ccccc3)[C@H]2CNC(=O)c2ccc(-c3ccccc3)cc2)O1 [Compound 652, N-(((3aR,4S,6aS)-5-benzyl-2,2-dimethyltetrahydro-3aH-[1,3]dioxolo[4,5-c]pyrrol-4-yl)methyl)biphenyl-4-carboxamide] | +++++ (+++++: ≧80%) |  |
| CCCCCCCCCN1C[C@@H](O)[C@@H](O)[C@H](NC(C)=O)C1 [Compound 731, N-((3R,4S,5R)-4,5-dihydroxy-1-nonylpiperidin-3-yl)acetamide] | ++ (++: 20-39%) |  |
| O=C(O)CCCN1C[C@@H](O)[C@H](O)[C@H]1CO [Compound 499, 4-[(2R,3R,4R)-3,4-dihydroxy-2-(hydroxymethyl)pyrrolidin-1-yl]butanoic acid] | ++ (++: 20-39%) |  |
| CC(=O)NC[C@H]1[C@@H](O)[C@@H](O)CN1CCN1CCCCC1 [Compound 616, N-(((2S,3R,4S)-3,4-dihydroxy-1-(2-(piperidin-1-yl)ethyl)pyrrolidin-2-yl)methyl)acetamide] | ++ (++: 20-39%) |  |
| CCCC(=O)OC[C@@H]1[C@@H](OC(=O)CCC)[C@H](OC(=O)CCC)[C@H]2[C@H](OC(=O)CCC)[C@@H](OC(=O)CCC)CN21 [Compound 132, (1R,2R,3R,6S,7S,7aR)-3-(butyryloxymethyl)hexahydro-1H-pyrrolizine-1,2,6,7-tetrayl tetrabutyrate] | ++ (++: 20-39%) |  |
| CN(C)CCN1C[C@@H]2OC(C)(C)O[C@@H]2[C@@H]1CNC(=O)C(F)(F)F [Compound 678, N-(((3aR,4S,6aS)-5-(2-(dimethylamino)ethyl)-2,2-dimethyltetrahydro-3aH-[1,3]dioxolo[4,5-c]pyrrol-4-yl)methyl)-2,2,2-trifluoroacetamide] | ++ (++: 20-39%) |  |
| CC1(C)O[C@H]([C@H]2[C@@H](O)[C@H](O)CN2Cc2ccccc2)[C@@H](CNCc2ccccc2)O1 [Compound 704, (2R,3R,4R)-1-benzyl-2-((4R,5R)-5-((benzylamino)methyl)-2,2-dimethyl-1,3-dioxolan-4-yl)pyrrolidine-3,4-diol] | ++++ (++++: 60-79%) |  |
